Structures are written as SMILES. Where a name gives a salt, the structure may show the parent alone. Read-outs that look alike come from different tables or passages of the source.

In data set [1] the test system is Tonic extension of the hind limbs. The experiment in a line: Antiepileptic action (pentetrazole-induced tonic extension of the hind limbs). The following applies: Mus musculus, ip, 0.5 h, read-out: Antiepileptic action ED₅₀. Format: in vivo, ddy Male mice.
Description: ddy Male mice (body weights: 25-30 g) were used. Test compounds were intraperitoneally administered. Thirty minutes later, pentetrazole (PTZ) was intraperitoneally administered at 170 mg/kg.
Tonic extension of the hind limbs was observed. [formula]
Effective dose for 50% of antiepileptic action, ED₅₀ (mg/kg) was calculated.
In data set [2] the test system is flexor reflex of the right anterior tibialis. The experiment in a line: Depressing action for the spinal reflex of cat (flexor reflex). The data set is classed as in vivo, cats. The following applies: Felis catus, iv, read-out: Reflex inhibition, %.
Description: Both male and female cats having a body weight of 2.5-4.0 kg were anesthetized with ether and then fixed in the supine position. In accordance with the method proposed by Shimamoto et al ["Yakurigaku Jisshu (Pharmacological Practice)", Nanzando Co., Ltd. (1960)], profound peroneal nerve-anterior peroneal nerve samples were prepared for the testing of flexor reflex. The flexor reflex of the right anterior tibialis was elicited by electrical stimulation (0.2 Hz, 1 ms, supra maximal voltage) of the central end of the ipsilateral femoral nerve. Under a static tension of 25 g, contractions of the corresponding anterior peroneal nerve were recorded on a polygraph. Assuming that the contraction force before the administration be 100%, the rate of flexor reflex inhibition was expressed in terms of percentage: [formula]
(§1) The test compounds were intravenously administered at 3 mg/kg.
The next data set is described as follows: Acute toxicity. The following applies: mouse, in vivo, ip; intraperitoneally administered; alive or dead observed one day later; read-out: LD₅₀. On the procedure:
ddy Male mice (body weights: 25-30 g) were used. Each test compound was intraperitoneally administered. One day later, the mice were observed whether they were alive or dead.
50% lethal doses, LD₅₀ (mg/kg) were calculated.

Data set [3] is described as follows: Central depressant action (spontaneous behavior, revolutionary wheel). Further details: species or system ddy Male mice. Conditions: mouse, in vivo, ip; intraperitoneal administration; dose reducing the number of wheel revolutions in 20 minutes by 50%; read-out: Central depressant action ED₅₀. How it is done:
Depressant action against spontaneous behavior using a revolutionary wheel was used as an index for central depressant action.
ddy Male mice (body weights: 25-30 g) were used. After intraperitoneal administration of each test compound, the mouse was immediately placed in a revolutionary wheel. The total number of revolutions of the wheel during a 20 minute period immediately after the placement of the mouse inside the wheel was counted.
Doses required to reduce the number of revolutions by 50%, ED₅₀ (mg/kg) were determined.

Data set [4] has as its system decerebrate rigidity induced by radio frequency lesions of rat brains. The data set is described as follows: Decerebrate rigidity remission action (radio frequency lesion, method of Ono et al). The data set is classed as in vivo, Wistar male rat. The following applies: iv, intravenously administered at 3 mg/kg, tension before the administration = 100%.
Excerpt: Using the method proposed by Ono et al [H. Ono et al, Gen. Pharmacol., 18, 57 (1987)], rigidity remission action of the aminoketone derivatives of the invention for the decerebrate rigidity induced by radio frequency lesions of rat brains was investigated.
Each Wistar male rat (body weight: 300-400 g) was anesthetized with ether and then fixed on a stereotaxic apparatus. In accordance with the Pellegrino's stereo-taxic brain atlas, the electrodes of a lesion generator (manufactured by Radionics Company) were punctuated to AP: 0, L:±1.5, V:-3. […] The rigidified rat was fixed in the abdominal position and one of the hind legs was pushed 4-5 mm toward the head repeatedly once a minute. The tension of each extension reflex of the extensor of the hind limbs was recorded. Assuming that the tension before the administration be 100%, the rate of rigidity inhibition as expressed in terms of percentage: [formula]
as §1
Data set [5] has as its system contraction of the bladder caused by a micturition reflex. The experiment in a line: Micturition reflex depression action (bladder balloon, internal pressure). Format: in vivo, Wistar male rats. Conditions: injected through the common carotid vein, urethane-anesthetized rats, Mean ± S.E., 3 rats. From the text: Wistar male rats having a body weight of 300 g were each anesthetized s.c. with 1.5 g/kg of urethane and fixed in the supine position. The hypogastrium was next subjected to median incision so that the bladder was exposed. A short cut was formed in a top part of the bladder, through which a balloon having an internal volume of about 1 mℓ was inserted. A catheter equipped with a three-way cock was connected to the balloon. A syringe was connected to another flow passage of the three-way cock, while a transducer ("Statham P-50", trade name) was connected to the remaining flow passage to permit the measurement of the internal pressure of the bladder.
After the rat was left over for at least 30 minutes after the operation, 0.25-0.5 mℓ of distilled water was injected into the balloon by means of the syringe. Variations in the internal pressure of the bladder, which were developed at that time due to spontaneous movement of the bladder, were recorded on a polygraph ("RM-6000", trade name; manufactured by Nihon Koden K.K.) by way of the transducer.
Each test compound was dissolved in physiological saline and injected through the common carotid vein. Effects of each test compound was expressed in terms of the time required until the disappearance of a contraction of the bladder caused by a micturition reflex.

The mark [6] stands for this setting: intraperitoneally administered 30 minutes before pentetrazole (PTZ) 170 mg/kg i.p.
The mark [7] stands for this setting: intravenously administered at 3 mg/kg, contraction force before the administration = 100%.

In the case of `Cc1onc(-c2ccccc2)c1C(=O)C(C)CN1CCCCC1.Cl` (centres unmarked) [Example 68, 3-Phenyl-5-methyl-4-(2-methyl-3-piperidinopropionyl)isoxazole hydrochloride], the ED50 in data set [1] (setting [6]) amounted to 17 mg/kg. Besides, the inhibition in vivo at 3 mg/kg in data set [2] (setting [7]) was found to be 56%.

Take `CCC(CN1CCCC1)C(=O)c1cc(-c2ccc(C)o2)no1` (centres unmarked) [Example 38]: the inhibition in vivo at 3 mg/kg in data set [2] (setting [7]) is 38%.

Regarding `Cc1ccc(-c2cc(C(=O)C(C)CN3CCCC3)on2)o1` (centres unmarked) [Example 20, hydrochloride], the LD50 at 24 h in the data set “Acute toxicity” was in the range of 170 to 300 mg/kg. The ED50 at 20 min in data set [3] was found to be 49 mg/kg. The inhibition in vivo at 3 mg/kg in data set [4] turned out to be 49%; in data set [2] (setting [7]), 54%.

For `CC(CN1CCCC1)C(=O)c1cc(-c2ccccc2)no1` (centres unmarked) [Example 5], the LD50 at 24 h in the data set “Acute toxicity” is 100 to 170 mg/kg. For the same compound, in data set [3], the ED50 at 20 min was 44 mg/kg. Besides, the ED50 in data set [1] (setting [6]) was 20 mg/kg. The inhibition in vivo at 3 mg/kg in data set [4] turned out to be 40%.

On to `CCC(CN1CCCC1)C(=O)c1snc2ccccc12` (centres unmarked) [Example 62], for which, in data set [3], the ED50 at 20 min was determined as 50 mg/kg. The ED50 in data set [1] turned out to be 23 mg/kg. In addition, in data set [2], the inhibition in vivo at 3 mg/kg was 90%.

The compound `CCC(CN1CCCC1)C(=O)c1cc(-c2ccccc2)on1` (centres unmarked) [Example 52] returned an inhibition in vivo at 3 mg/kg in data set [4] of 61%.

For `CCc1ccc(C(=O)C(C)CN2CCCCC2)cc1` (centres unmarked) [Eperisone hydrochloride, eperisone hydrochloride, reference compound], the LD50 at 24 h in the data set “Acute toxicity” was 100 to 170 mg/kg. For the same compound, the ED50 at 20 min in data set [3] was 33 mg/kg. Further, in data set [1] (setting [6]), the ED50 came to 30 mg/kg. The inhibition in vivo at 3 mg/kg in data set [4] was 52%; in data set [2] (setting [7]), 50%. The “Time required until disappearance” value in data set [5] (Dose 2 mg/kg) is 2.4 ± 1.2 min; in data set [5] (Dose 4 mg/kg) it was 5.8 ± 2.1 min.

On to `CCC(CN1CCCC1)C(=O)c1noc2ccccc12` (centres unmarked) [Example 58, 3-{2-(1-pyrrolidinylmethyl)butyryl} -1,2-benzisoxazole hydrochloride], for which the inhibition in vivo at 3 mg/kg in data set [2] came to 45%.

For the compound `CC(CN1CCCCC1)C(=O)c1cc(-c2ccccc2)no1.Cl` (centres unmarked) [Example 1, 5-(2-methyl-3-piperidinopropionyl)-3-phenylisoxazole Hydrochloride], the LD50 at 24 h in the data set “Acute toxicity” was in the range of 170 to 300 mg/kg. Moreover, the ED50 at 20 min in data set [3] came to 54 mg/kg. In addition, the ED50 in data set [1] (setting [6]) was 17 mg/kg. The compound further yielded an inhibition in vivo at 3 mg/kg in data set [4] of 40%.

In the case of `CC(CN1CCCC1)C(=O)c1snc2ccccc12` (centres unmarked) [Example 61], in data set [3], the ED50 at 20 min is 37 mg/kg. Moreover, the ED50 in data set [1] (setting [6]) stood at 11 mg/kg. In data set [2] (setting [7]), the inhibition in vivo at 3 mg/kg worked out at 85%.

Consider `CC(CN1CCCCC1)C(=O)c1cc(Cc2ccccc2)no1.Cl` (centres unmarked) [Example 21, 3-Benzyl-5-(2-methyl-3-piperidinopropionyl)isoxazole hydrochloride], for which, in data set [3], the ED50 at 20 min is 52 mg/kg. For the same compound, the inhibition in vivo at 3 mg/kg in data set [4] was 44%.

For the compound `CC(CN1CCCCC1)C(=O)c1cc(C(=O)c2ccccc2)no1.Cl` (centres unmarked) [Example 22, 3-benzoyl-5-(2-methyl-3-piperidinopropionyl)isoxazole hydrochloride], the ED50 at 20 min in data set [3] was found to be 43 mg/kg. Besides, the ED50 in data set [1] (setting [6]) stood at 18 mg/kg. Further, in data set [4], the inhibition in vivo at 3 mg/kg was found to be 41%.

Turning to `CCC(CN1CCCCC1)C(=O)c1cc(-c2ccccc2)no1` (centres unmarked) [Example 29], in the data set “Acute toxicity”, the LD50 at 24 h was in the range of 300 to 500 mg/kg. In data set [3], the ED50 at 20 min was determined as 38 mg/kg. Besides, the ED50 in data set [1] (setting [6]) is 3 mg/kg. Besides, the inhibition in vivo at 3 mg/kg stood at 53% in data set [4] and 70% in data set [2] (setting [7]). The “Time required until disappearance” value in data set [5] (Dose 2 mg/kg) is given as 4.9 ± 1.2 min; in data set [5] (Dose 4 mg/kg), 8.6 ± 2.1 min.

Consider `CC(C)C(CN1CCCC1)C(=O)c1cc(-c2ccccc2)no1` (centres unmarked) [Example 46, 3-Phenyl-5-{2-(1-pyrrolidinylmethyl)-3-methylbutyryl}-isoxazole hydrochloride], for which the inhibition in vivo at 3 mg/kg in data set [4] was determined as 51%; in data set [2] (setting [7]), 66%.

`CCC(CN1CCCC1)C(=O)c1cc(-c2ccccc2)no1` (centres unmarked) [Example 28, 3-Phenyl-5-{2-(1-pyrrolidinylmethyl)butyryl} isoxazole hydrochloride]: in “Acute toxicity”, the LD50 at 24 h lay in the range of 100 to 170 mg/kg. Moreover, the ED50 at 20 min in data set [3] came to 44 mg/kg. Moreover, the ED50 in data set [1] (setting [6]) was determined as 5 mg/kg. Further, the inhibition in vivo at 3 mg/kg in data set [4] was 62%; in data set [2] (setting [7]) it was 79%. The “Time required until disappearance” value in data set [5] (Dose 2 mg/kg) turned out to be 5.6 ± 1.2 min; in data set [5] (Dose 4 mg/kg), 10.1 ± 2.1 min.

`CCCC(CN1CCCC1)C(=O)c1cc(-c2ccccc2)no1` (centres unmarked) [Example 47]: the inhibition in vivo at 3 mg/kg in data set [2] was 45%.

For the compound `COc1cccc(-c2cc(C(=O)C(C)CN3CCCC3)on2)c1` (centres unmarked) [Example 8], the inhibition in vivo at 3 mg/kg in data set [4] is 38%.

Source of the values: patent EP0414391B1, “Aminoketone derivatives and use thereof” (MITSUI TOATSU CHEMICALS, Inc., priority 1989, dated 1991).
